From patent US9051277B2, “Phenyl(oxy/thio)alkanol derivatives” (Bayer Intellectual Property GmbH, priority 2009, dated 2015) come the findings set out here.

One experiment relates to Alternaria solani. The experiment is described as follows: Alternaria test (tomato)/protective. In kind it is in vivo. The conditions noted are these: protective, 100 ppm, evaluation 3 days after inoculation. On the procedure: [table] To produce a suitable preparation of active compound, 1 part by weight of active compound is mixed with the stated amounts of solvent and emulsifier, and the concentrate is diluted with water to the desired concentration. To test for protective activity, young plants are sprayed with the preparation of active compound at the stated application rate. After the spray coating has dried on, the plants are inoculated with an aqueous spore suspension of Alternaria solani. The plants are then placed in an incubation cabin at about 20° C. and 100% relative atmospheric humidity.

For a further experiment, the system named is Fusarium proliferatum. The experiment is described as follows: Production of fumonisin FB1 by Fusarium proliferatum. To be noted: 120 h, read-out: inhibition of fumonisin FB1 production. It counts as cell-based.
A further experiment deals with Fusarium graminearum. The experiment is described as follows: microbe, parasite or virus in culture. In kind it is cell-based. The conditions noted are these: 168 h, read-out: inhibition of DON/AcDON production.
For a further experiment, the system named is Pyrenophora teres. The experiment is described as follows: Pyrenophora teres test (barley)/protective. The conditions noted are these: protective, evaluation 8 days after inoculation. It counts as in vivo. On the procedure: [table] To produce a suitable preparation of active compound, 1 part by weight of active compound is mixed with the stated amounts of solvent and emulsifier, and the concentrate is diluted with water to the desired concentration. To test for protective activity, young plants are sprayed with the preparation of active compound at the stated application rate. After the spray coating has dried on, the plants are sprayed with a spore suspension of Pyrenophora teres. The plants remain in an incubation cabin at 20° C. and a relative atmospheric humidity of 100% for 48 hours.

Another experiment has as its system Aspergillus parasiticus. The experiment in a line: microbe, parasite or virus in culture. The conditions noted are these: 168 h, read-out: inhibition of aflatoxin production. It counts as cell-based.
Experiment [1] concerns Setaria viridis (green foxtail). The experiment in a line: Phytoregulatory post-emergence action, SETVI. To be noted: 80 g of a.i./ha, visual rating after about 3 weeks. In kind it is in vivo. On the procedure: (§1) Seeds of monocotyledonous and dicotyledonous crop plants are placed in sandy loam in wood-fibre pots, covered with soil and cultivated in a greenhouse under good growth conditions. 2 to 3 weeks after sowing, the test plants are treated at the one-leaf stage. The test compounds, formulated as wettable powders (WP), are, with a water application rate of 600 l/ha (converted), with 0.2% of wetting agent added, sprayed at various dosages onto the green parts of the plants. After the test plants have been kept in the greenhouse under optimum growth conditions for about 3 weeks, the activity of the preparations is rated visually in comparison to untreated controls (phytoregulatory activity in percent: 100% activity=maximum inhibition of plant growth, 0% activity=plant growth like that of an untreated control.)

Experiment [2] concerns Brassica napus (rape). The experiment in a line: Phytoregulatory post-emergence action, BRSNW. To be noted: 80 g of a.i./ha, visual rating after about 3 weeks. It counts as in vivo. On the procedure:
as §1

For experiment [3], the system named is Brassica napus (rape). The experiment is described as follows: Phytoregulatory pre-emergence action, BRSNW. It counts as in vivo. To be noted: 80 g of a.i./ha, visual assessment after about 3 weeks. An excerpt: (§2) Seeds of monocotyledonous or dicotyledonous crop plants are placed in wood-fibre pots in sandy loam and covered with soil. The test compounds, formulated in the form of wettable powders (WP), are then, as an aqueous suspension with a water application rate of 600 l/ha (converted), with 0.2% of wetting agent added, applied at various dosages to the surface of the covering soil. After the treatment, the pots are placed in a greenhouse and kept under good growth conditions for the test plants. The visual assessment of the suppression of growth in the test plants is carried out after a trial period of about 3 weeks by comparison with untreated controls (phytoregulatory activity in percent: 100% activity=maximum inhibition of plant growth, 0% activity=plant growth like that of an untreated control.)

The next experiment concerns Oryza sativa (rice). The experiment in a line: Phytoregulatory pre-emergence action, ORYSA. In kind it is in vivo. To be noted: 80 g of a.i./ha, visual assessment after about 3 weeks.
From the text: as §2

Experiment [4] deals with Triticum aestivum (common wheat). The experiment in a line: Phytoregulatory post-emergence action, TRZAS. It counts as in vivo. The conditions noted are these: 80 g of a.i./ha, visual rating after about 3 weeks. On the procedure: as §1

Where only a bound is given, the exact number is not on record here.

Regarding `CC(C)(C)C(O)(COc1ccc(I)cc1)Cn1cncn1` (stereo not shown) [Compound 1], the Efficacy in % with Alternaria solani turned out to be 94%; with Pyrenophora teres (application rate 1000 ppm), 86%. Further, the inhibition at 50 µM with Fusarium proliferatum and in the experiment on Fusarium graminearum was more than 80% each time.
`CC(C)(C)C(O)(CSc1ccc(I)cc1)Cn1cncn1` (stereo not shown) [Compound 3]: the inhibition at 50 µM in the experiment on Fusarium proliferatum and in the experiment with Fusarium graminearum was more than 80% throughout.
Take `CC(C)(C)C(O)(COc1ccc(Br)cc1)c1cncnc1` (stereo not shown) [Compound 11]: the Efficacy in % in the experiment on Alternaria solani came to 99%; in the experiment with Pyrenophora teres (application rate 500 ppm) it was 100%. The inhibition at 50 µM in the experiment with Fusarium proliferatum, in the experiment with Fusarium graminearum and in the experiment with Aspergillus parasiticus was more than 80% each time. The “Inhibition of the growth of useful or harmful plants in % SETVI” value in experiment [1] is reported as 70%. Moreover, the “Inhibition of the growth of useful or harmful plants in % BRSNW” value in the experiment with Brassica napus (rape) [2] worked out at 60%; with Brassica napus (rape) [3], 80%. In addition, the “Inhibition of the growth of useful or harmful plants in % ORYSA” value with Oryza sativa (rice) is recorded as 60%. The “Inhibition of the growth of useful or harmful plants in % TRZAS” value in experiment [4] was 70%.
Take `CC(C)(C)C(O)(CSc1ccc(Br)cc1)c1cncnc1` (stereo not shown) [Compound 13]: the inhibition at 50 µM in the experiment on Fusarium proliferatum is more than 80%.
Turning to `CC(C)C(O)(COc1ccc(Br)cc1)c1cncnc1` (stereo not shown) [Compound 21], the inhibition at 50 µM in the experiment with Fusarium proliferatum and in the experiment with Fusarium graminearum was more than 80% in each case.
In the case of `CC(C)(C)C(O)(COc1ccc(Cl)cc1)c1cncnc1` (stereo not shown) [EP-A 0 028 755, Example 1, reference compound], the results for the Efficacy in % in the experiment on Alternaria solani and in the experiment on Pyrenophora teres (application rate 500 ppm) were 75% and 93%, respectively. For the same molecule, the “Inhibition of the growth of useful or harmful plants in % SETVI” value in [1] was determined as 50%. The results for the “Inhibition of the growth of useful or harmful plants in % BRSNW” value in the experiment with Brassica napus (rape) [2] and in the experiment on Brassica napus (rape) [3] were 60% and 70%, respectively. Besides, in the experiment with Oryza sativa (rice), the “Inhibition of the growth of useful or harmful plants in % ORYSA” value was 40%. Moreover, the “Inhibition of the growth of useful or harmful plants in % TRZAS” value in [4] is given as 50%.
Take `CC(C)(C)C(O)(COc1ccc(Cl)cc1)Cn1cncn1` (stereo not shown) [EP-A 0 040 345, Example I-1, reference compound]: the Efficacy in % in the experiment with Alternaria solani is 45%; with Pyrenophora teres (application rate 1000 ppm), 57%.
